± gives the expanded uncertainty stated by the source.
Conditions: Liquid, Ebulliometric method (Recirculating still)

Row | Structure (SMILES) | vapor or sublimation pressure (352.72 K) [kPa] | vapor or sublimation pressure (351.45 K) [kPa]
1 | CCC(C)=O [butanone] | 101.3 ± 0.46 | –
2 | CCO [ethanol] | – | 101.3 ± 0.46
